Data as given in ChEMBL document CHEMBL5137091, “Investigating the Structure-Activity Relationship of 1,2,4-Triazine G-Protein-Coupled Receptor 84 (GPR84) Antagonists” (J Med Chem, 2022).

Test system: not listed separately
Test: Protein binding in mouse plasma assessed as unbound fraction
Assay type: ADME, cell-free

Row | fraction unbound | SMILES
1 | < 0.01 | c1ccc(-c2nc(Cc3c[nH]c4ccccc34)nnc2-c2ccc(CN3CCOCC3)cc2)cc1
2 | < 0.01 | c1ccc(-c2nnc(Cc3c[nH]c4ccccc34)nc2-c2ccccc2)cc1

Biological target: G-protein coupled receptor 84 (Homo sapiens, UniProt Q9NQS5)
Test: biochemical

G-protein coupled receptor 84, sequence (Q9NQS5 whole entry): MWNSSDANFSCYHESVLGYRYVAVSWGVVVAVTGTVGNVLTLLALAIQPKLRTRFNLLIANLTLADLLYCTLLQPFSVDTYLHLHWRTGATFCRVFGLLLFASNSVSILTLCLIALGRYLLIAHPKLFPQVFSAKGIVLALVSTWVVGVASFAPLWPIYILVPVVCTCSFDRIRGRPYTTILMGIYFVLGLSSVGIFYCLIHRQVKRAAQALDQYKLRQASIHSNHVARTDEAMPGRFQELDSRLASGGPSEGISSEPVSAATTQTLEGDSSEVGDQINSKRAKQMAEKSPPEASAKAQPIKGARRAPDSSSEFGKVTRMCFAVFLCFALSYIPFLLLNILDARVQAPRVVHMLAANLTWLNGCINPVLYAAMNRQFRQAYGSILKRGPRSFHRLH

Row | SMILES | IC50
3 | c1ccc(-c2cnnc(Cc3c[nH]c4ccccc34)n2)cc1 | 10200 nM
4 | c1ccc(-c2cnc(Cc3c[nH]c4ccccc34)nn2)cc1 | 5620 nM

Other lines, results leading:

Row | IC50 | SMILES
5 | 115 nM | COC(=O)c1cccc(-c2nnc(Cc3c[nH]c4ccccc34)nc2-c2ccccc2)c1
6 | 398 nM | COC(=O)c1cccc(-c2nc(Cc3c[nH]c4ccccc34)nnc2-c2ccccc2)c1
7 | 263 nM | c1ccc(-c2nnc(Cc3c[nH]c4ccccc34)nc2-c2ncccn2)cc1
